Measured values: patent US4971985A, “Pyridylketoxime ether compound and pharmaceutical composition containing it” (Kaken Pharmaceutical Co., Ltd., priority 1988, dated 1990)
Where a name gives a salt, the structure may show the parent alone. Read-outs that look alike come from different tables or passages of the source.

How the values were obtained:
[1] = system: erythrocytes; assay: Activity to improve the deformation of erythrocytes (time to pass through millipore filter); format: cell-based, male New Zealand rabbit; settings: rabbit washed erythrocytes treated with Ca^2+ and ionofore A-23187; 5 μm millipore filter
Experimental: A suspension of washed erythrocytes was prepared from a blood collected by heart puncture from a male New Zealand rabbit having a body weight of about 3 kg and having Heparin added thereto, by using a Krebs-Henseleit solution containing 20 mM of HEPES. […] As a control drug, W-7 was used.

[2] = molecular target: T1, bovine cerebral calmodulin (Bos taurus, UniProt P62157); assay: Calmodulin antagonism (inhibition of 5'-AMP formation by calmodulin-stimulated c-AMP-PDE); format: biochemical
T1 construct: bovine cerebral calmodulin; from tissue; host or cells: bovine brain (calmodulin); bovine myocardium (PDE)
From the text: As a control drug, W-7 [N-(6-aminohexyl)-5-chloro-1-naphthalenesulfonamide]was used.

[3] = molecular target: T2, Ca^2 + Channel (Cavia porcellus, UniProt O35505); assay: Calcium channel antagonism (isolated guinea pig cecum string, calcium chloride concentration reaction curve); format: cell-based, male Hartley guinea pig; settings: high potassium Krebs solution, 32° C, pretreatment 30 minutes, read-out: Ca^2 + Channel antagonism (pA2) (converted)
T2 construct: The cecum string of a male Hartley guinea pig; from tissue; host or cells: isolated cecum string (taenia caeci) of male Hartley guinea pig
T2 sequence (O35505 whole entry): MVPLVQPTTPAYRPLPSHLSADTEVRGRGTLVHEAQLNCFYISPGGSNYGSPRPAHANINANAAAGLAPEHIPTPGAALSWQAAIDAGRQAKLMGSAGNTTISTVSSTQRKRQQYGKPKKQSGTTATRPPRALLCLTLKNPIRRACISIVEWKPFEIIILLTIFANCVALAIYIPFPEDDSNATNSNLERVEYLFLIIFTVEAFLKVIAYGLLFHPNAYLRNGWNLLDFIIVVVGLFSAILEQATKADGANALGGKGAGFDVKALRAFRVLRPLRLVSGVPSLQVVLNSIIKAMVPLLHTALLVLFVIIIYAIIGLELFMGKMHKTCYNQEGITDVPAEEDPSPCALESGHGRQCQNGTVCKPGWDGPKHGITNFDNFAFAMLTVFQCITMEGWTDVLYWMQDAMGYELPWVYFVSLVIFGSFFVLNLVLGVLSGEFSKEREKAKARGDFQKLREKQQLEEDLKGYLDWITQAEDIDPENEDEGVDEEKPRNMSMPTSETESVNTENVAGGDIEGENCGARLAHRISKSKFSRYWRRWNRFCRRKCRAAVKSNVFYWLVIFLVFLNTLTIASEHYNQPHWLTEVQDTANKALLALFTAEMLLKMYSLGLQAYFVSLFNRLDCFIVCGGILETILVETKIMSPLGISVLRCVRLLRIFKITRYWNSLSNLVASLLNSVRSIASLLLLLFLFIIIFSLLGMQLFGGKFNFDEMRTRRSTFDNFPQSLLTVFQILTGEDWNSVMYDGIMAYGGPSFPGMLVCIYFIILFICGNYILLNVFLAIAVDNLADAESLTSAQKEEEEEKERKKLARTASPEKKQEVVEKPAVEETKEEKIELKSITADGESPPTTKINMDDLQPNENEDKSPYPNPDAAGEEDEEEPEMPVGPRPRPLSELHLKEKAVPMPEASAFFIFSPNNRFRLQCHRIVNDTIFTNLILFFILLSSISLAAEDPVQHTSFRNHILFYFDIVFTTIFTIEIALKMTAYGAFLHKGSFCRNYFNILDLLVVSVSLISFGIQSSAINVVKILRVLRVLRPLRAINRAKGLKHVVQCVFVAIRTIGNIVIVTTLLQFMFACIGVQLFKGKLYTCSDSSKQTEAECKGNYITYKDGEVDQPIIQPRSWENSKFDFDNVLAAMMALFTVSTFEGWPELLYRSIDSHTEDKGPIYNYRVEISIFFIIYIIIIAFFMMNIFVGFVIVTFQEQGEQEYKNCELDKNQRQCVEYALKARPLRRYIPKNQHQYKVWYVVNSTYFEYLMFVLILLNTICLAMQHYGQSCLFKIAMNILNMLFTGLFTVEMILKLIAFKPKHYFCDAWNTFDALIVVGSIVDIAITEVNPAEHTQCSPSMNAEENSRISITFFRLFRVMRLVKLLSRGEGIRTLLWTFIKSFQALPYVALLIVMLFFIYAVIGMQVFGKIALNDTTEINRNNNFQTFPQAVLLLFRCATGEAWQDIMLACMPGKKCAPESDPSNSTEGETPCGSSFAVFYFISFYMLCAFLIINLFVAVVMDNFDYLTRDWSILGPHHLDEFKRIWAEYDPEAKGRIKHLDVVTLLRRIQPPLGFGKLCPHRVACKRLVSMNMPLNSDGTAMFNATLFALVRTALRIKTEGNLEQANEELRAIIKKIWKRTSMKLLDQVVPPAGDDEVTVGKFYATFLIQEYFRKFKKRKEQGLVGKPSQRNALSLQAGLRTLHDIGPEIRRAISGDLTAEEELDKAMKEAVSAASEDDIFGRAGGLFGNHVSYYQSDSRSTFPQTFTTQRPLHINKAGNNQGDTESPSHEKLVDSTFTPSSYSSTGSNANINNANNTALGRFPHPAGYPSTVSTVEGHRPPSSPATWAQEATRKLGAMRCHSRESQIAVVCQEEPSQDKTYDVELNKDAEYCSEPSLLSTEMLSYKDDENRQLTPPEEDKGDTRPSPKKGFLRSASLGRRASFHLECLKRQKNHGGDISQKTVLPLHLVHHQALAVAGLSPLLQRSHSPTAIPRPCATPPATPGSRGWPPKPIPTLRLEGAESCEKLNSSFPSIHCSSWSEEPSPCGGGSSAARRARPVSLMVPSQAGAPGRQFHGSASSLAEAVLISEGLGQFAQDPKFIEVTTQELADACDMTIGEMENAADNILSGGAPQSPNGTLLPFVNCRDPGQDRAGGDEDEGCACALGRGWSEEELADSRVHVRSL
Experimental: The cecum string of a male Hartley guinea pig having a body weight of 350 g was taken out, and while air was supplied,.it was hanged with a load of 0.5 g in a high potassium Krebs solution bath (32° C) having calcium removed. Calcium chloride was accumulatively added, and the reaction was recorded by means of an isotonic tranduser (manufactured by Nippon Koden K. K.) to obtain a constant standard concentration reaction curve.
On the other hand, pretreatment with a compound of the present invention was conducted for 30 minutes, and then calcium chloride was added to the reaction bath, and from concetration reaction curve thereby obtained, pA2 was obtained.

[4] = 50 m units bovine cerebral calmodulin, 0.1 mM Ca^2+, 1 μM c-AMP, 0.875 m units bovine myocardial c-AMP-PDE, read-out: Calmodulin antagonism IC50

SMILES | Activity to improve the deformation of erythrocytes [pass through time (sec.)] [1] | IC50 [2, 4] | Kb [3] | IC50 [2]
FC(F)(F)c1cccc(C(=NOCCc2ccccc2)c2cccnc2)c1 [Compound 64] | 16 s | 6500 nM | 871 nM | 
c1ccc(OCCON=C(c2ccccc2)c2cccnc2)cc1 [Compound 26, O-[(2-phenoxy)ethyl]-phenyl-3-pyridylketoxime] | 18 s | 10000 nM | 234 nM | 
Clc1ccccc1C(=NOCCc1ccccc1)c1cccnc1 [Compound 58] | 12 s |  |  | 3500 nM
Fc1cccc(C(=NOCCc2ccccc2)c2cccnc2)c1 [Compound 63] | 18 s | 5000 nM | 603 nM | 
NCCCCCCNS(=O)(=O)c1cccc2c(Cl)cccc12 [Compound W-7, N-(6-aminohexyl)-5-chloro-1-naphthalenesulfonamide, reference compound] | 25 s |  |  | 
c1ccc(CCON=C(c2cccnc2)c2cccs2)cc1 [Compound 66] | 17 s |  | 525 nM | 
COc1ccc(CON=C(c2ccccc2)c2ccccn2)cc1OC [Compound 13, O-(3,4-dimethoxybenzyl)-phenyl-2-pyridylketoxime] | 16 s |  | 148 nM | 
Cc1ccc(C)c(C(=NOCCc2ccccc2)c2cccnc2)c1 [Compound 62] | 18 s | 8000 nM | 933 nM | 
Clc1cccc(CCON=C(c2ccccc2)c2cccnc2)c1 [Compound 47] | 15 s | 6300 nM |  | 
c1ccc(C(=NOCc2cccc3ccccc23)c2cccnc2)cc1 [Compound 20, O-(1-naphthylmethyl)-phenyl-3-pyridylketoxime] | 20 s |  | 525 nM | 
Clc1ccc(C(=NOCCc2ccccc2)c2cccnc2)cc1 [Compound 57] | 20 s |  |  | 9500 nM
Cc1ccccc1CCON=C(c1ccccc1)c1cccnc1 [Compound 43, O-[2-(2-methylphenyl)ethyl]-phenyl-3-pyridylketoxime] | 14 s | 4100 nM | 479 nM | 
O=[N+]([O-])c1cccc(C(=NOCCc2ccccc2)c2cccnc2)c1 [Compound 65] | 18 s |  | 692 nM | 
CNc1ccc2oc(C[C@H]3O[C@@]4(CC[C@H]3C)O[C@H]([C@H](C)C(=O)c3ccc[nH]3)[C@H](C)C[C@H]4C)nc2c1C(=O)O [Calcium salt of A 23187, reference compound] | 39 s |  |  | 
c1ccc(CCON=C(c2ccccc2)c2cccnc2)cc1 [Compound 1, O-(2-phenylethyl)-phenyl-3-pyridylketoxime] | 12 s | 3800 nM | 275 nM | 
COc1ccc(CON=C(c2ccccc2)c2cccnc2)cc1OC [Compound 14, O-(3,4-dimethoxybenzyl)-phenyl-3-pyridiylketoxime] | 15 s | 8000 nM | 437 nM | 
Clc1ccccc1CCON=C(c1ccccc1)c1cccnc1 [Compound 46] | 18 s | 8800 nM |  | 
